Experimental data from patent US20150320773A1, “TREATMENT OF INFLAMMATION” (Vascular Biogenics Ltd., priority 2011, published 2015).

Legend:
[1] = test system: THP-1 cells; experiment: Trans-well chemotaxis assay of THP-1 cells; assay type: cell-based, human; conditions: Wortmannin 1 μmol/L, Rapamycin 1.1 μmol/L, GW5074 1 μmol/L
Procedure: For chemo-attraction of monocytes, RANTES (100 ng/ml), MIP-1α (50 ng/ml) or MCP-1 (50 ng/ml) were dissolved in 0.5% fetal bovine serum(FBS)/RPMI-1640 medium and placed at the lower chamber of QCM™ 24-well migration assay plate (Corning-Costar; 5 μm pores). For chemo-attraction of CD4+ cells, 0.5% FBS/RPMI-1640 solution containing RANTES (100 ng/ml) and SDF-1α (50 ng/ml) was used, using the same plate setting. Migration assay was conducted by seeding 300,000 treated cells in the upper chamber, followed by incubation of 3-4 hours. Subsequently, the number of cells which migrated to the medium in the lower compartment was determined by FACS.
Data are mean f SD from 4 experiments in triplicates, normalized to untreated cells. **, p<0.001.

[2] = test system: Human monocytes (CD14+ cells); experiment: In vitro cell migration (trans-well chemotaxis) assay of human monocytes; assay type: cell-based; conditions: for reduction of monocyte chemotaxis towards MCP-1 and RANTES (50 ng/ml each): 30 min pre-incubation, PC 5 μg/ml, partially oxidized PAPC 40 μg/ml, PGPC 5 μg/ml, VB-201 5 μg/ml
Procedure: Following incubation, cells were loaded to the upper chamber and allowed to migrate for 3.5 hours towards 0.5% fetal bovine serum/RPMI-1640 medium supplemented with recombinant human MCP-1 and RANTES (50 ng/ml each).
In order to further ascertain the significance of ERK1/2 phosphorylation and MEK1/2 phosphorylation to monocyte chemotaxis, the effect of the RAF inhibitor GW5074, which reduces MEK and ERK phosphorylation, on monocyte chemotaxis was determined in a trans-well migration assay using a combination of MCP-1 ([…]) and RANTES (70 ng/ml) as attractant. Monocytes were pre-treated with 5 μM GW5074 for 30 minutes prior to seeding in the migration chamber.
For this purpose, monocytes from healthy donors were pre-incubated for 30 min with either solvent (0.005% ethanol/PBS), phosphatidylcholine (PC; 5 μg/ml), partially oxidized PAPC (24 h oxidation; 40 μg/ml) or PGPC (5 μg/ml), and allowed to migrate towards recombinant human MCP-1 (CCL2; ligand for CCR2) and RANTES (CCL5; ligand for CCR1, CCR3, CCR5, US28) as attractants (50 ng/ml each). […]

[3] = test system: human monocytes; experiment: ROS formation in human monocytes (DCF, FACS); assay type: cell-based; conditions: overnight; VB-201 10 μg/ml, PGPC 10 μg/ml, OxPAPC 100 μg/ml; relative to PBS
Procedure: Detection of ROS was performed through FACS quantification of the oxidation product dichlorodihydrofluorescein (DCF). Data are mean±SD from 3-4 experiments performed in duplicates. FIG. 23B is a histogram from a representative experiment showing DCF levels in treated cells.

[4] = molecular target: T1, TLR4 (Mus musculus, UniProt Q9QUK6); conditions: RAW 264.7 murine macrophages
T1 sequence (Q9QUK6 26-835): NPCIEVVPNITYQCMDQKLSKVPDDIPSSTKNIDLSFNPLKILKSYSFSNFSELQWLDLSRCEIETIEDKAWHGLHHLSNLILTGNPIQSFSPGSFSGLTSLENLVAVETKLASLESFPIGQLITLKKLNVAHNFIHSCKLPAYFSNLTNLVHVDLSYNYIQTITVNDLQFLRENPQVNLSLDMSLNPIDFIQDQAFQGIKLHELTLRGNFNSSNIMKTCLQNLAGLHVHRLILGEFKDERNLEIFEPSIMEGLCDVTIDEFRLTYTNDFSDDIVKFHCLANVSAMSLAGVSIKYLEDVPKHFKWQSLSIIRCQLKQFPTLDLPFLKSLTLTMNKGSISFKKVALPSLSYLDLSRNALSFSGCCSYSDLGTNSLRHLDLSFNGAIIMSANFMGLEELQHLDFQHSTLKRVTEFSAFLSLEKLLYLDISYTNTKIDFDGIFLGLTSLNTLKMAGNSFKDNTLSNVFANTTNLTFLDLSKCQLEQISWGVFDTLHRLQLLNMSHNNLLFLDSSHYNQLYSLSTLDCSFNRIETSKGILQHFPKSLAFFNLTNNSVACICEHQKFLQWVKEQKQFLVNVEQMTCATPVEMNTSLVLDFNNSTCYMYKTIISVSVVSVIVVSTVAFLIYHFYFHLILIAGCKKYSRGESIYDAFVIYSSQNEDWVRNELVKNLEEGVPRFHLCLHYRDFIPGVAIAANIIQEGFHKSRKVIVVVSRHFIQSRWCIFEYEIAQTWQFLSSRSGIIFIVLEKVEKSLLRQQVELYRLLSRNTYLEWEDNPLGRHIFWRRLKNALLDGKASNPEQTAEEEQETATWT
T1 sequence (Q9JHF9 19-160 partner): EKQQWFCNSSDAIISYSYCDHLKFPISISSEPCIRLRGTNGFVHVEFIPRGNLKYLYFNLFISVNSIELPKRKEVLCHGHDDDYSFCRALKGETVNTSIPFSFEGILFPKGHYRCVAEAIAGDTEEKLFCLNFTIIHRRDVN
Procedure: Cells were washed and re-suspended in lysis buffer containing 1:100 dithiothreitol (DTT) (Bio-Lab), and phosphatase and protease inhibitors (Thermo Scientific). Samples were loaded on a precasted Criterion TGX gel (BIO-RAD, UK) and transferred onto nitrocellulose membrane. Blots were blocked with 5% milk or bovine serum albumin (BSA) in TBST (Tris buffer saline with TWEEN 20) for 1 hour, followed by incubation with primary and secondary antibodies. Membranes were developed using the ECL kit (Thermo Scientific).
Toll-like receptors were activated in mouse BMDCs (bone marrow dendritic cells) by specific agonists, and the effect of receptor activation was determined via Western blot for phosphorylation of p38 MAP kinase, which is downstream of TLRs.

O=C1Nc2ccc(I)cc2C1=Cc1cc(Br)c(O)c(Br)c1 [GW5074, 3-(3,5-dibromo-4-hydroxy-benzylidene)-5-iodo-1,3-dihydro-indol-2-one, reference compound]
chemotaxis of THP-1 cells in vitro [1]: decrease chemotaxis of THP-1 cells
reduction of monocyte migration ([2]; 5 μM GW5074, 30 minutes, MCP-1 (50 ng/nl) and RANTES (70 ng/ml)): about 80%

CCCCCCCCCCCCCCCC(=O)OCC(COP(=O)([O-])OCC[N+](C)(C)C)OC(=O)CCCC(=O)O (stereo not drawn) [PGPC, 1-palmitoyl-2-glutaryl-phosphatidylcholine, reference compound]
reduction of monocyte chemotaxis towards MCP-1 and RANTES (50 ng/ml each) [2]: ~50%
ROS formation in human monocytes [3]: no effect on ROS formation

CCCCCCCCOC[C@H](COP(=O)([O-])OCC[N+](C)(C)C)OCCCCC(=O)O [VB-207, (R)-1-octyl-2-(4′-carboxyl)butyl-sn-glycero-3-phosphocholine]
LPS-induced signaling [4]: neither VB-207 nor OB-VB207 exhibited such an inhibitory effect

phosphatidylcholine [PC, reference compound]
reduction of monocyte chemotaxis towards MCP-1 and RANTES (50 ng/ml each) [2]: did not reduce the number of migrating cells
